Measurements reported in patent US11400054B2, “Method for treating an autoimmune neurological disease and/or neurodegenerative disease and pharmaceutical formulations for a liquid dosage form and a controlled release dosage form” (INDUSTRIAL TECHNOLOGY RESEARCH INSTITUTE, priority 2017, dated 2022).

Assays:
[1] = system: MOG induced IL-2 secretion in splenocyte; experiment: MOG induced IL-2 secretion in splenocyte isolated from mice of EAE model (ELISA); type: cell-based, C57BL/6 mice; details: Mus musculus, 20 μg/ml MOG peptide, 48 hours; for inhibition at 300 µM: concentration 300 μM; for inhibition at 200 µM: concentration 200 μM; for inhibition at 100 µM: concentration 100 μM
Description: (§1) EAE was induced in C57BL/6 mice. The mice were immunized on Day 0 by subcutaneous injection with 200 μg of myelin oligodendrocyte glycoprotein (MOG) in […] containing 400 μg of heat-killed Mycobaterium tuberculosis H37Ra. Pertussis toxin (500 ng) was intraperitoneally injected on Day 0 and Day 2 after the mice were immunized with the emulsion. The mice were sacrifice on Day 30 post-immunization. Spleens of the mice were harvest and then splenocytes were isolated and cultured in presence or absence of the 20 μg/ml MOG peptide in 10% FBS RPMI1640 medium. Testing compound was added to the culture and maintained at 37° C. 5% CO2 for 48 hours. The concentrations of IFN-γ and IL-2 in the supernatant of the culture were determined by ELISA according to the manufacturer's instructions.

EAE induced mice [2] = experiment: Therapeutic administration experiment in EAE induced mice, EAE score; type: in vivo, C57BL/6 mice; details: 14 days after onset
[3] = system: MOG induced IFN-γ secretion in splenocyte; experiment: MOG induced IFN-γ secretion in splenocyte isolated from mice of EAE model (ELISA); type: cell-based, C57BL/6 mice; details: Mus musculus, 20 μg/ml MOG peptide, 48 hours; for inhibition at 300 µM: concentration 300 μM; for inhibition at 200 µM: concentration 200 μM; for inhibition at 100 µM: concentration 100 μM
Description: as §1

[4] = system: spinal cords of the EAE induced mice; experiment: Histology of spinal cord lesions in EAE induced mice (H&E, Luxol fast blue); type: in vivo, C57BL/6 mice; details: 100 mg/kg three times a day, day 15 after onset
Description: The mice were euthanized at day 15 post to onset of EAE. Spinal cord was removed and fixed in 10% phosphate-buffered formaldehyde. Paraffin-embedded 3 μm-thick cross sections of spinal cord were stained with hematoxylin and eosin in order to confirm tissue lesion. Another slides were stained with Luxol fast blue for examination of demyelination. Lesions were evaluated based on demyelination, inflammation, axonal swelling and gliosis which are scored based on the criteria shown in Table 2: […]

EAE induced mice [5] = experiment: Prophylaxis administration experiment in EAE induced mice, EAE score; type: in vivo, C57BL/6 mice; details: 100 mg/kg one time a day from Day 7 after induction, 14 days; vs vehicle (FIG. 10)
[6] = system: LPS-induced IL-6 expression in BV-2 cells; experiment: LPS-induced IL-6 expression in BV-2 cells (IL-6 ELISA); type: cell-based; details: Mus musculus, compound 1 hour then LPS 100 ng/mL, 24 hours
Description: (§2) BV-2 cells (8×10^3 cells/mL) were seeded in a 96-well plate cultured under 37° C., 5% CO2 overnight. The cells were divided into a naïve group (without any treatment), a control group (only treated with LPS) and experimental groups (treated with LPS and a testing compound).
(§3) The supernatant in the well was removed. After that, different concentrations of a testing compound was added to the cells to react with the cells for 1 hour (culture medium was added to the cells for a control group), and then LPS (100 ng/mL) was added to the cell.
After reacting for 24 hours, the supernatant in the plate was taken and IL-6 expressing amount was detected by Mouse IL-6 ELISA Ready-SET-Go (Invitrogen; Cat. No. 88-7064-88) according to the manufacturer's recommended procedure.
(§4) CC50 value for cell viability of a testing compound and IC50 value for IL-6 expression of a testing compound were calculated based on cell viabilities at different concentrations of the testing compound and IL-6 expression amounts of the cells at different concentrations of the testing compound, respectively.

[7] = Cell viability of BV-2 cells (MTT); type: cell-based; details: mouse, LPS 100 ng/mL
Description: as §2, §3
Moreover, 50 μl of culturing medium containing MTT (0.5 mg/mL) was added to the cell part in the plate and cultured under 37° C. and 5% CO2 for 90 minutes, and then 150 μL DMSO was added to the plate and the plate was shaken for 5-10 minutes. Finally, OD570 was read by a continuous wavelength microplate analyzer, and cell viability was calculated using the following formula: Cell viability (%)=(OD value of the experimental group/OD value of the control group)×100.
as §4

| Structure (SMILES) | inhibition at 200 µM [1] | inhibition at 200 µM [3] | IC50 [6] | CC50 at 24 h [7] | further results |
| --- | --- | --- | --- | --- | --- |
| CC1=CCC(C(C)(C)O)CC1O (stereo not drawn) [SK0, (+)(−) trans-Sobrerol, reference compound] |  |  |  |  | inhibition at 300 µM [1]: 16%; EAE score (symptoms of EAE) (EAE induced mice [2]; 100 mg/kg one time a day, 15, 50, 100 mg/kg BID, vs vehicle (FIGS. 8A, 8B)): significantly alleviating symptoms of EAE; inhibition at 300 µM [3]: 10% |
| CC1=CC[C@H](C(C)(C)O)C[C@H]1O [SK1, (+) trans-Sobrerol] | 0% | 24% |  |  |  |
| CC1=CC[C@@H](C(C)(C)O)C[C@@H]1O [SK2, (−) trans-sobrerol] | 0% | 34% | 183 ± 21.8 µM | > 200 µM | axonal swelling in spinal cords ([4]; vs vehicle (FIG. 7B)): effectively alleviating; inflammation in spinal cords ([4]; vs vehicle (FIG. 7C)): effectively alleviating; gliosis in spinal cords ([4]; vs vehicle (FIG. 7D)): effectively alleviating; demyelination in spinal cords ([4]; vs vehicle (FIGS. 6, 7A)): effectively alleviating; EAE score (symptoms of EAE) (EAE induced mice [5]): significantly alleviating symptoms of EAE; EAE score (symptoms of EAE) (EAE induced mice [2]; 30, 100 mg/kg one time a day, 50, 100 mg/kg BID, 10-100 mg/kg TID, vs vehicle (FIGS. 5A-5C)): significantly alleviating symptoms of EAE |
| CC1=CC[C@@H](C(C)(C)O)C[C@@H]1OC(=O)CCc1ccccc1 [TMUS-0124-4c] | 23% | 78% | 38.2 µM | > 100 µM |  |
| CC1=CC[C@@H](C(C)(C)O)C[C@@H]1OC(=O)c1ccc([N+](=O)[O-])cc1 [TMUS-0124-4d] | 22% | 79% | 48.1 µM | > 100 µM |  |
| COc1ccc(C(=O)O[C@H]2C[C@H](C(C)(C)O)CC=C2C)cc1 [TMUS-0124-4e] |  |  | 50.8 µM | > 100 µM | inhibition at 100 µM [1]: 59%; inhibition at 100 µM [3]: 86% |
| CCCCCC(=O)O[C@H]1C[C@H](C(C)(C)O)CC=C1C [TMUS-0124-4f] | 8% | 59% | 38 µM | > 100 µM |  |
| CC1CCC(C(C)(C)O)CC1=O (stereo not shown) [TMUS-0503-H2] |  |  | < 10 µM | > 100 µM | inhibition at 100 µM [1]: 16%; inhibition at 100 µM [3]: 33% |
| C[C@H]1CC[C@H](C(C)(C)O)C[C@H]1O [TMUS-0503-H3] |  |  | 30 to 100 µM | > 100 µM |  |
| C[C@@H]1CC[C@H](C(C)(C)O)C[C@H]1O [TMUS-0503-H4] |  |  | 30 to 100 µM | > 100 µM | inhibition at 300 µM [1]: 19%; inhibition at 300 µM [3]: 42% |
| CC1=CC[C@@H](C(C)(C)O)C[C@@H]1OCc1ccccc1 [TMUS-0503-b1] |  |  | < 10 µM | > 100 µM | inhibition at 300 µM [1]: 15%; inhibition at 300 µM [3]: 20% |
| CC1=CCC2CC1OC2(C)C (stereo not shown) [TMUS-0503-c1] |  |  | 30 to 100 µM | > 100 µM | inhibition at 300 µM [1]: 22%; inhibition at 300 µM [3]: 23% |
| CC1(C)OC2CC1CC1OC21C (stereo not shown) [TMUS-0503-c2] |  |  | 30 to 100 µM | > 100 µM | inhibition at 100 µM [1]: 13%; inhibition at 100 µM [3]: 31% |
| CO[C@H]1C[C@H](C(C)(C)O)CC=C1C [TMUS-0503-m1] |  |  | < 10 µM | > 100 µM | inhibition at 100 µM [1]: 21%; inhibition at 100 µM [3]: 17% |
| CC1=CCC(C(C)(C)O)CC1=O (stereo not shown) [TMUS-0503-o1] | 40% | 56% | < 10 µM | > 100 µM |  |
